# Data reported in US20170105647A1, “SYSTEMS AND METHODS FOR IDENTIFYING NEUROBIOLOGICAL BIOMARKERS USING EEG” (Children's Medical Center Corporation, priority 2014, published 2017).
# Values joined by “and” are separate entries in the source; they are usually repeats but may differ in a detail not shown here. Identical values can stand only once.
# How the values were obtained:
# Type in all cases: in vivo, human
# [1] = system: children with regressive autism (R-ASD), STAR group; assay: 4 Hz frequency modulated auditory evoked response (FMAER), before vs after steroid treatment; details: for Mean Diff. (mean of pre to post difference of 4 Hz FMAER spectral power): STAR group n = 20, oral 2 mg/kg/day
# Description: In this example, subjects with regressive autism were utilized to determine whether application of a corticosteroid would improve language function and show an improved 4 Hz FMAER. […] A pharmacologically untreated clinical convenience sample of children with ASD served as controls.
# Steroid Treated Autism with Regression (STAR): The target group of study subjects was limited to children aged 3-5 years old, diagnosed as having autism with a historically documented period of regression at onset. Regression was defined as the loss of age appropriate language, communication, cognitive ability, and behavior determined by the referring physician and confirmed by the treating neurologist. Patients with a slowly developing plateau or a very slow regression over a prolonged period of time, as opposed to an abrupt regression, were not included in the STAR group.
# Steroid Treatment STAR Patients: Oral prednisolone (Prelone™ or Orapred™) was administered by the parents on a daily basis at 2 mg/kg/day. Dosage was occasionally down-adjusted on the basis of minor complications.
# All subjects' electrophysiological data utilized in this study were gathered from 30 scalp channels via gold cup electrodes applied with collodion after careful measurement. A 31st channel carried the FMAER trial marker. A 32nd channel carried eye movement and blink artifact information. Data were digitized at 256 Hz after amplification by a Cardionics™ 32 channel EEG amplifier (Cardionics Inc. 910 Baystar Blvd, Webster, Tex. 77598 USA) set to 1-100 Hz pass band. The 30 EEG scalp channels used included the following: FP1, FP2, F7, F3, FZ, F4, F8, FC5, FC1, FC2, FC6, T7, C3, CZ, C4, T8, CP5, CP1, CP2, CP6, P7, P3, PZ, P4, P8, O1, OZ, O2, TP9, and TP10 [28]. Data for the FMAER were gathered over 5-20 minutes with additional time allowed for rest breaks as indicated. The patient and a parent, when behaviorally indicated, were together within view of the technologist through a one-way mirror window in a sound-shielded room, adjacent to the recording equipment. Off-line, the EEG data and accompanying trial markers were visually evaluated and epochs containing excessive eye-blink, muscle and movement artifact were marked for removal from subsequent analysis. All 30 channel data were visually inspected for EEG abnormalities and for creating the common average reference. For the current study, FMAER analysis was restricted to 14 active scalp electrodes: F7, F8, T7, T8, P7, P8, TP9, TP10, F3, F4, C3, C4, P3, and P4.
# Frequency Modulated Auditory Evoked Response (FMAER): Language comprehension requires decoding of rapidly changing speech streams; detection of FM within speech has been hypothesized as essential for accurate phoneme detection and word comprehension. The FMAER was developed as a steady-state EP to assess the brain's response to rapid changes in the frequency modulation (FM) of an applied auditory stimulus in extension of and based upon the pioneering work of Green, Stefanatos and others. […] Midline frontal electrodes (FZ, FC1, FC2) usually manifest bilateral overlapping source dipole projection. […] The FMAER may be normal, or as in pathology, of low amplitude, distorted, or absent. In rare cases of pathology the FMAER source location may be outside the usual STG location and/or the source dipole may point in unexpected directions..
# As previously detailed, the FMAER was formed from a carrier sine wave at 1000 Hz frequency modulated by a slower 10 Hz sine wave causing the frequency of the carrier wave to shift (“deviate”) between […] at the 10 Hz rate, producing a warbling tone. The 10 Hz sine wave was then amplitude modulated by a slower 4 Hz sine wave such that the warbling (FM modulation) was sinusoidally turned on and off (AM modulated) at the 4 Hz rate. This process caused the 10 Hz “warbling” of the 1000 Hz sine wave carrier to be sinusoidally turned fully on and off (100% modulation) at 4 Hz. […]
# [2] = system: children with regressive autism (R-ASD), STAR group; assay: Subjective evaluation of EEG abnormality, change from first to second study
# Description: Subjective Evaluation of EEG Abnormality: All first and second EEG studies were visually reassessed by a pediatric electroencephalographer blinded to subject history and group identity. All EEGs were reviewed in randomly selected order with respect to group and study order. Each EEG was scored as showing in ascending order of abnormality (if present): paroxysmal sharp theta, sharp waves, and spike or spike wave discharges. After this “blinded” estimation was completed, EEG results were sorted into first and second EEG study order, without group identity; subsequently the electroencephalographer compared each subject's two sequential EEGs and classified their scores as showing “worsening”, “no change”, or “improvement” between the first and second study.
# [3] = system: children with regressive autism (R-ASD), STAR group; assay: Clinical Language Status Questionnaire (CLSQ) language assessment
# Description: Language Assessment, STAR Group: STAR group subjects were followed by their child neurologists using a clinical language assessment, referred to as the “Clinical Language Status Questionnaire (CLSQ)” which was developed in-house well prior to the current study. It is as yet unpublished. The assessment was designed to assist pediatric neurologists involved in the pharmacological treatment of neurological disorders, in estimating language progress or lack thereof—from a child's parent(s)' report and the clinician's direct assessment at the time of a clinical visit. It involves evaluation of both the child's current best expressive and receptive language performance. In the current study, documentation of lack of response improvement or plateau, along with assessment of medical complication(s), constituted the primary evidence used for treatment discontinuation. […] The term “Appears normal” (Table 1) was defined as the clinician's and family's report of normal, age-appropriate speech. None of the children in this study received this score. “Appears nearly normal” was defined as context and age appropriate speech with evidence of mispronunciations, poor or odd word choice, unusual fluency or unusually sparseness, unusual grammatical errors such as errors in tense, pronoun gender match and/or pluralization, and/or requirement of adult speech simplification in order to assure comprehension relative to age expectancy. The difference between “short meaningful 1-2 word phrases” and “meaningful 3+ word phrases” is self-explanatory. Although many well developed language tests exist, as documented by the American Speech-Language-Hearing Association (www.asha.org/assessments.aspx), most tend to be detailed yet too coarsely grained to capture this population's limited language range. They are also typically too time-consuming for repeated administration by neurologists during recurring, clinical check-in visits. In contrast, the CLSQ may be completed in less than ten minutes. An additional advantage of the CLSQ for the current study was its comprehensiveness in capturing the full—while limited—range of language change observed in this patient population. Parents are shown short phrases (without the numerical scores) and asked to identify their child's current relevant expressive and receptive status. The neurologist stands by to clarify, assist, and help resolve two caregivers' divergent opinions. Neurologists using the CLSQ are sensitive to the language performance definitions in question. The study subjects' CLSQ score assignments occurred without prior knowledge of the current study.
# [4] = system: children with regressive autism (R-ASD), STAR group; assay: DSM-IV criteria for Autistic Disorder, scaled behavioral score
# Description: Behavioral Assessment: The DSM-IV criteria for Autistic Disorder (299.0), aside from employment for diagnosis, were scaled in terms of severity for each STAR group child and the sum of the scaled scores was assigned as behavioral score. The direction of scaling was defined such that the higher the score was, the more severe the behavioral manifestations of ASD were. The symptom items and scaling are described in Table 2. […] Summed scaled item scores were assigned in order to quantify behavioral change in analogy to language change. For the current study scores were selected for the office visit nearest to the first and the second EEG/FMAER studies respectively. Scorers had no knowledge of the current study's goals or design, the future group status of subjects, or the subjects' FMAER results. The NSA group subjects lacked the DSM-IV based behavior scores.
# [5] = STAR group n = 20, blinded visual EEG rating
# [6] = STAR group n = 20, pre- to post-treatment, CLSQ scale 0-10
compound,measurement,setting,value
C[C@]12C=CC(=O)C=C1CC[C@@H]1[C@@H]2[C@@H](O)C[C@@]2(C)[C@H]1CC[C@]2(O)C(=O)CO [prednisolone],Electrode measurements of the FMAER 4 Hz response with significant change before vs after steroid therapy,"[1]; STAR group, matched-paired t-test, 14 electrodes",nine of 14 and 9 of 14
same,FMAER response distortion (spectral spread) after steroid treatment,"[1]; all STAR subjects, FFT of FMAER",reduction of distortion
same,Mean Diff. (mean of pre to post difference of 4 Hz FMAER spectral power),[1]; electrode C3,24.15 μV^2/Hz
same,Mean Diff. (mean of pre to post difference of 4 Hz FMAER spectral power),[1]; electrode C4,22.66 μV^2/Hz
same,Mean Diff. (mean of pre to post difference of 4 Hz FMAER spectral power),"[1]; electrode F3, mean 9.125 months",47.18 μV^2/Hz
same,Mean Diff. (mean of pre to post difference of 4 Hz FMAER spectral power),[1]; electrode F4,64.31 μV^2/Hz
same,Mean Diff. (mean of pre to post difference of 4 Hz FMAER spectral power),[1]; electrode F7,3.38 μV^2/Hz
same,Mean Diff. (mean of pre to post difference of 4 Hz FMAER spectral power),[1]; electrode F8,18.47 μV^2/Hz
same,Mean Diff. (mean of pre to post difference of 4 Hz FMAER spectral power),[1]; electrode P3,10.49 μV^2/Hz
same,Mean Diff. (mean of pre to post difference of 4 Hz FMAER spectral power),[1]; electrode P4,10.52 μV^2/Hz
same,Mean Diff. (mean of pre to post difference of 4 Hz FMAER spectral power),[1]; electrode P7,65.08 μV^2/Hz
same,Mean Diff. (mean of pre to post difference of 4 Hz FMAER spectral power),[1]; electrode P8,77.83 μV^2/Hz
same,Mean Diff. (mean of pre to post difference of 4 Hz FMAER spectral power),[1]; electrode T7,15.49 μV^2/Hz
same,Mean Diff. (mean of pre to post difference of 4 Hz FMAER spectral power),[1]; electrode T8,30.60 μV^2/Hz
same,Mean Diff. (mean of pre to post difference of 4 Hz FMAER spectral power),[1]; electrode TP9,56.91 μV^2/Hz
same,Mean Diff. (mean of pre to post difference of 4 Hz FMAER spectral power),[1]; electrode TP10,83.49 μV^2/Hz
same,EEG change Time 1 to Time 2: number of subjects Improved,[2]; [5],3
same,EEG change Time 1 to Time 2: number of subjects No Change,[2]; [5],10
same,EEG change Time 1 to Time 2: number of subjects Worse,[2]; [5],7
same,Steroid effect on EEG abnormalities by visual inspection,"[2]; STAR vs NSA, Fisher's exact test n.s.",little evidence for a physiologically meaningful steroid effect on EEG
same,Expressive Language change Time 1 to Time 2: number of subjects Better,[3]; STAR group n = 20,17
same,Expressive Language change Time 1 to Time 2: number of subjects NoDiff,[3]; STAR group n = 20,2
same,Expressive Language change Time 1 to Time 2: number of subjects Worse,[3]; STAR group n = 20,1
same,Receptive Language change Time 1 to Time 2: number of subjects Better,[3]; STAR group n = 20,17
same,Receptive Language change Time 1 to Time 2: number of subjects NoDiff,[3]; STAR group n = 20,3
same,Receptive Language change Time 1 to Time 2: number of subjects Worse,[3]; STAR group n = 20,0
same,"Mean Diff. of CLSQ score, Time 1 to Time 2, Expressive language",[3]; [6],4.10
same,"Mean Diff. of CLSQ score, Time 1 to Time 2, Receptive language",[3]; [6],4.80
same,STAR group subjects showing improvement in language ratings,"[3]; receptive and expressive, study 1 to study 2",17/20
same,"Average DSM-IV Score (mean of 14 scored items, 0-3 each)",[4]; After treatment,0.9857
same,"Average DSM-IV Score (mean of 14 scored items, 0-3 each)",[4]; Before treatment (baseline),2.0677
same,Scaled DSM-IV symptom summary scores after steroid treatment,[4]; p≦0.00001,highly significant improvement
